Data as given in patent publication US8580517B2, “Biosensor and use thereof to identify therapeutic drug molecules and molecules binding orphan receptors” (priority 2003, dated 2013).
Entries after “also recorded” stand apart in the source; their conditions may differ.

Columns and labels:
Assay type in all cases: cell-based
[1] = target: T1, M2 muscarinic acetylcholine receptors (Homo sapiens, UniProt P08172); assay: G protein biosensor FRET (CY/CC) imaging in CHO cells stably expressing M2 receptor; details: for FRET signal intensity on addition of the molecule: 100 μM, α-CFP/β-YFPγ biosensor; for FRET signal intensity on repeated addition of agonist and antagonist: Go biosensor, same cell, repeated additions; for CC emission intensity / CY emission intensity: carbachol 100 μM, then atropine 100 μM
T1 construct: expressed in transfected cells
T1 sequence (P08172 1-466): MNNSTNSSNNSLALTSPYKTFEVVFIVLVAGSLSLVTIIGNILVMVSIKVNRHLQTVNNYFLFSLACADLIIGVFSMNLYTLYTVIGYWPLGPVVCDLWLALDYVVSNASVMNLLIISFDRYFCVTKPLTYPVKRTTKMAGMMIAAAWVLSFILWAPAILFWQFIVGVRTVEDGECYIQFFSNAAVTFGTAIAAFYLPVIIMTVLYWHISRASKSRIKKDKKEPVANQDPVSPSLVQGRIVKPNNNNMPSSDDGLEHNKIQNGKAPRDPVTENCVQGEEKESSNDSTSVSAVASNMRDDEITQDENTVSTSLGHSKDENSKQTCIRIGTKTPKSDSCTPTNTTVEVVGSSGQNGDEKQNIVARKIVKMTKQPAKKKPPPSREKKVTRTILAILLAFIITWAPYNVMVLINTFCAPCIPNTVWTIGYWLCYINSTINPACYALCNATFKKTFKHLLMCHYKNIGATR
Experimental: All were transferred to pDEST12.2 mammalian expression vectors following the manufacturer's instructions (Invitrogen). […] Competent CHO cells expressing M2 were competently transfected with three pDEST12.2 carrying αo-CFP, β1-YFP and γ5. Stable transfectants were selected with G418 and coexpressors were isolated by flow cytometry and confirmed by differential fluorescence microscopy.
(§1) Microscopy, image acquisition and FRET analysis (i.e. image capture, recording and analysis) were carried out as follows (generally following the illustration in FIG. 3). Cells were seeded on glass coverslips (25 mm #1 from Warner Instruments) in 35 mm dishes and cultured overnight for imaging. Coverslips containing cells were mounted in a perfusion chamber of 0.36 ml internal volume (RC-21BR from Warner Instrument Corporation, 1141 Dixwell Ave., Hamden, Conn. 06514) containing Hank's Buffered Saline Solution (HBSS) supplemented with 10 mM Hepes pH 7.4 and 1 mg glucose/ml. The perfusion chamber was stage-mounted in an upright Zeiss Axioscope fluorescence microscope.
(§2) Agonists, antagonists or a molecule in the HBSS solution were injected manually (or using an automated valve based system driven pneumatically or by gravity) at a rate of about 2 ml/min for 45 seconds through a secondary inlet of the chamber. Images were acquired at the indicated times. Cells were illuminated with a 50 W mercury lamp (or a 100 W mercury lamp) through a 20% neutral density filter. The filter wheels were run by a Sutter Lambda 10-2 device, a high speed excitation filter wheel that utilizes a direct stepper motor. (Sutter Instrument Company, 51 Digital Drive, Novato, Calif. 94949). In an aspect, power to operate instruments such as the microscope, pumps, motor(s), camera(s), computer(s) control system is supplied by 110 volt electric which is supplied to the instruments and turned on at the startup.
Filters were used in combination with appropriate beam splitters in the filter cube. For CC (cyan) images: D436/20 excitation (x), D480/40 emission (m) and 455DCLP beam splitter; for CY (FRET) images: D436/20x, D535/30m and 455DCLP beam splitter; for YY (yellow) images: the filters D500/20x, D535/30m and 515LP beam splitter. All filters were from Chroma. Images were acquired using a Hamamatsu CCD Orca-ER Camera with 4×4 binning. Exposure times were 1 sec for each CC or CY image. Images were acquired and captured of the FRET signal every 15 sec for a total of 4 or 6 minutes and stored as 12-bit gray scale image-stacks using MetaVue/Metamorph software (Universal Imaging Corporation, 402 Boot Road, Downington, Pa. 19335). Both camera and filter wheels were controlled peripherally using MetaVue from a Dell Computer Workstation (Dell Computer, Houston, Tex.) Images were processed using Metamorph (Universal Imaging) in a Dell Computer Workstation. […] Average intensities in these regions were measured. Maximum intensity per pixel in selected regions were ensured to be lower than the maximum value on the available 12-bit gray scale (4095). Ratios of the CY over CC intensities from these regions were plotted to obtain the FRET profiles.
Agonist concentration dependence of the decrease in the FRET signal: Images (emission spectra) of live functional biosensor cells were captured and recorded as above for about six minutes. […] The regression lines were drawn using GraphPad (Prizm). The percentage of activation by submaximal doses was determined by the formula 100(Rx−Ro)/(Rm−Ro). Rx, Ro and Rm are the numerical values of the respective regression lines at the 210 second elapsed time point where Ro was the initial baseline, Rx was the submaximal response and Rm was the maximal response.

[2] = tested on: human adenosine receptors; assay: G protein biosensor FRET profile in biosensor cells expressing adenosine receptor; details: 50 μM
Experimental: as §1
as §2, with “(Sutter Instrument Company, 51 Digital Drive, Novato, Calif. 94949). In an aspect, power to operate instruments such as the microscope, pumps, motor(s), camera(s), computer(s) control system is supplied by 110 volt electric which is supplied to the instruments and turned on at the startup.” left out
(§3) Filters were used in combination with appropriate beam splitters in the filter cube. […] Average intensities in these regions were measured. […]

[3] = target: T1, M2 muscarinic acetylcholine receptors; assay: G protein biosensor FRET (CY/CC) imaging in CHO cells stably expressing M2 receptor; details: biosensor with CFP tagged α, YFP tagged γ, untagged β subunit
[4] = target: T2, human serotonin receptors (Type 1A) (Homo sapiens, UniProt P08908); assay: G protein biosensor FRET profile in biosensor cells expressing serotonin receptors
T2 construct: expressed in transfected cells; host or cells: Biosensor cells
T2 sequence (P08908 1-422): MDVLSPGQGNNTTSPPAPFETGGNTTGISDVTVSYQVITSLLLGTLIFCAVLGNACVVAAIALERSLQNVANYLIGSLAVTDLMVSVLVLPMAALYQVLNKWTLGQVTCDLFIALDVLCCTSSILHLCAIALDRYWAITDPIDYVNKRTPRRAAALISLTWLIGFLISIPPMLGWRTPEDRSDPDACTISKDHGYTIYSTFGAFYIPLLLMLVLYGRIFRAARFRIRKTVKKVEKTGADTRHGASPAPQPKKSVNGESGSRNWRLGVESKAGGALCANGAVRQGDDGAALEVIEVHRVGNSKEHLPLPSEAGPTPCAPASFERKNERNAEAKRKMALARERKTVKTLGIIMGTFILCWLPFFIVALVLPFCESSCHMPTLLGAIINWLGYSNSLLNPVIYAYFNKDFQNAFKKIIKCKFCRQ
Experimental: as §1
as §2, with “(Sutter Instrument Company, 51 Digital Drive, Novato, Calif. 94949). In an aspect, power to operate instruments such as the microscope, pumps, motor(s), camera(s), computer(s) control system is supplied by 110 volt electric which is supplied to the instruments and turned on at the startup.” left out
as §3

SMILES | FRET signal intensity on addition of the molecule [1] | FRET signal intensity on repeated addition of agonist and antagonist [1] | CC emission intensity [1] | CY emission intensity [1] | other results
CC(C)NCC(O)c1ccc(O)c(O)c1 (centres unmarked) [Isoproterenol, isoproterenol] | no effect on FRET signal intensity | – | – | – | –
OC[C@H]1O[C@@H](n2cnc3c(NC4CCCCC4)ncnc32)[C@H](O)[C@@H]1O [adenosine N6-Cyclohexyl] | – | – | – | – | FRET signal intensity on addition of agonist [2]: decreased the FRET signal intensity significantly
CN1[C@@H]2CC[C@H]1C[C@@H](OC(=O)C(CO)c1ccccc1)C2 (some centres unmarked) [atropine] | – | increases | CC emission intensity decreases | increases | carbachol-induced loss of FRET after pretreatment with antagonist ([1]; atropine 10 μM present, carbachol 100 μM added): no longer elicited the loss of FRET; FRET signal intensity on addition of antagonist after agonist ([1]; atropine 100 μM after carbachol 100 μM): FRET signal intensity increases strikingly
C[N+](C)(C)CCOC(N)=O [carbachol] | reduced FRET signal intensity; also recorded: FRET signal intensity decreases | decreases | CC emission intensity increases | CY emission intensity decreases | FRET signal intensity on addition of agonist [3]: decrease in FRET signal intensity
CC(C)(C)NCC(O)COc1cccc2[nH]c(C#N)cc12 (centres unmarked) [cyanopindolol] | – | – | – | – | FRET signal intensity on addition of antagonist after agonist ([4]; cyanopindolol 150 μM after serotonin 20 μM): increase in the FRET signal intensity
NCCc1c[nH]c2ccc(O)cc12 [serotonin] | – | – | – | – | FRET signal intensity on addition of agonist ([4]; 20 μM): decreased the FRET signal intensity significantly; also recorded: decrease in the FRET signal intensity
